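Protocol summary: plate cells (96-well), add compound at 5 concentrations, incubate 48 h, interpolate endpoints linearly. Definition used: TGI = concentration required for complete inhibition of growth.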
How the values were obtained:
Test in all cases: inhibition of tumour cell growth, NCI panel, 48 h
SW-620 colon = tested on: SW-620 colon
UACC-257 melanoma = tested on: UACC-257 melanoma
DU-145 prostate = tested on: DU-145 prostate
SNB-19 CNS = tested on: SNB-19 CNS
NCI-H460 lung = tested on: NCI-H460 lung
NCI-H522 lung = tested on: NCI-H522 lung
SK-MEL-2 melanoma = tested on: SK-MEL-2 melanoma
OVCAR-8 ovarian = tested on: OVCAR-8 ovarian
SK-OV-3 ovarian = tested on: SK-OV-3 ovarian
MDA-MB-231 breast = tested on: MDA-MB-231 breast
NCI-H23 lung = tested on: NCI-H23 lung
HCC-2998 colon = tested on: HCC-2998 colon
U251 CNS = tested on: U251 CNS
NCI/ADR-RES ovarian = tested on: NCI/ADR-RES ovarian
RXF 393 renal = tested on: RXF 393 renal
SR leukemia = tested on: SR leukemia

SMILES | TGI (SW-620 colon) [µM] | TGI (UACC-257 melanoma) [µM] | TGI (DU-145 prostate) [µM] | TGI (SNB-19 CNS) [µM] | TGI (NCI-H460 lung) [µM] | TGI (NCI-H522 lung) [µM] | TGI (SK-MEL-2 melanoma) [µM] | TGI (OVCAR-8 ovarian) [µM] | TGI (SK-OV-3 ovarian) [µM] | TGI (MDA-MB-231 breast) [µM] | TGI (NCI-H23 lung) [µM] | TGI (HCC-2998 colon) [µM] | TGI (U251 CNS) [µM] | TGI (NCI/ADR-RES ovarian) [µM] | TGI (RXF 393 renal) [µM] | TGI (SR leukemia) [µM]
O=C1c2c(Br)sc(Br)c2C(NC(=O)C(F)(F)F)C1O (configuration not stated) | 40 | 36.4 | 39.4 | 56.4 | 36 | 27.3 | 40.9 | 44.1 | 36.4 | 38.5 | 46.3 | 32.6 | 37.4 | 75.2 | 27.5 | –
OC1=C2c3ccccc3NC2Oc2cc(F)ccc21 (configuration not stated) | 47.9 | 41.4 | 37.5 | 44.6 | 38.5 | 52.8 | 41.8 | > 100 | 26.6 | 33 | 36 | 32.4 | 29.6 | 47.3 | 38.3 | –
[O-][n+]1nc(N2CCOCC2)nc2ccccc21 | > 100 | > 100 | > 100 | > 100 | – | > 100 | > 100 | > 100 | > 100 | > 100 | > 100 | > 100 | > 100 | > 100 | > 100 | –
COc1cc(C(=O)NNC(=O)c2cc(Br)ccc2NC(=O)c2cccs2)cc(OC)c1OC | > 100 | 56.9 | > 100 | 74.3 | 73.6 | 53.3 | 44.9 | 59.9 | 36.5 | – | 57.1 | – | 44.6 | 62 | 29.1 | > 100
COc1ccc(CC2Cc3ccccc3CCN2)cc1OC (configuration not stated) | > 50 | > 50 | > 50 | > 50 | > 50 | – | > 50 | > 50 | > 50 | > 50 | > 50 | > 50 | > 50 | > 50 | > 50 | –
Cc1cc(S(=O)(=O)Nc2nc(N)nc(N3N=CCC3C)n2)c(SCC(=O)O)cc1Cl (configuration not stated) | > 10 | > 10 | > 10 | > 10 | > 10 | > 10 | > 10 | > 10 | > 10 | > 10 | > 10 | > 10 | > 10 | > 10 | > 10 | –

From PubChem BioAssay (NCI)
